Patent publication US10759735B2, “Bridged bicyclic compounds and their derivatives as neuroprotective agents and methods of use thereof” (Florida Atlantic University Board of Trustees, priority 2018, dated 2020)
Entries after “also recorded” stand apart in the source; their conditions may differ.

Key:
Type in all cases: in vivo, Drosophila melanogaster
[1] = system: excitatory junction potential (EJP) at the Drosophila NMJ; test: control recordings of excitatory junction potential (EJP) shape and amplitude; details: 1 nM, in the presence and absence of 2.25 mM H2O2, ten minutes after bath switch
Excerpt: In all panels, the curved black line represents the average EJP in hemolymph-like saline (HL3) one minute before the recording bath was replaced with HL3 containing the drug alone or the drug and H2O2. The curved gray line represents the average EJP from the same larvae ten minutes after the bath was switched from HL3 saline to HL3 containing either the drug alone or the drug and H2O2.

[2] = system: Drosophila larval neuromuscular junction synaptic transmission; test: neuromuscular junction (NMJ) postsynaptic transmission assay: time to synaptic failure under acute oxidative stress (2.25 mM H2O2); details: for EC50: Drosophila melanogaster, read-out: EC50 (half-maximal effective concentration) in protecting neurotransmission from H2O2 exposure, 2.25 mM H2O2 in HL3 saline, w1118 third instar larvae, from % maximal response of time to synaptic failure
Excerpt: Small molecule-mediated neuroprotection is an area of research that has important implications for several maladies such as migraine, Alzheimer's disease, and stroke. One promising method to measure the neuroprotective effects of various medicinal compounds against oxidative stress in D. melanogaster has been developed (Caplan et al. Journal of Neurophysiology, 2013, 109, 3, 649-658). In this phenotypic model, fly larvae have their synaptic transmission measured via electrical probes in the post-synaptic neuromuscular junction (NMJ). The time until synaptic failure is first measured to obtain a control. An oxidizing solution (2.25 mM of hydrogen peroxide) is then introduced to the tissue and the time to synaptic failure is again measured. Hydrogen peroxide greatly reduces the time to synaptic failure relative to the control by damaging neurons through oxidative stress. Once the time to synaptic failure has been established with hydrogen peroxide alone, then different compounds can be introduced at varying concentrations along with the hydrogen peroxide solution, and their effects on the time to synaptic failure are measured and compared to the two controls.
A series of compounds generated using the methods described herein were subjected to a neuromuscular junction (NMJ) postsynaptic transmission assay. Resveratrol was included as a neuroprotectant control. When a wash of hydrogen peroxide (2.25 mM) was introduced, the time to synaptic failure was shortened from approximately 150 min to approximately 40 min (FIG. 2). Introducing resveratrol at 25 nM restored the time to synaptic failure to approximately 150 min upon addition of hydrogen peroxide (2.25 mM).
To quantify tolerance of neurotransmission to acute oxidative stress, electrophysiological recordings from Drosophila larval preparations were conducted in a hemolymph-like 3 (HL3) saline containing 2.25 mM hydrogen peroxide (H2O2).
Wandering third instar larvae (≈110 hours old) from the fruit fly, Drosophila melanogaster, were utilized for all electrophysiological experiments described throughout this study. Larvae were reared at 25° C. on 12 h:12 h light-dark (LD) cycles in an incubator. Only w^1118 larvae were utilized in this study.
(§1) All electrophysiological experiments were performed as previously described with the exception of the resistance of the intracellular electrodes (60-90 MΩ) (Caplan et al. J. Neurophys. 109, 649-658). Excitatory junction potentials (EJPs) were elicited via repetitive stimulation (0.3 ms pulses delivered suprathreshold at a frequency of 1 Hz) and measured until synaptic failure occurred, which was characterized by an EJP amplitude of <1 mV being recorded. Electrophysiological recordings from larval preparations were conducted in hemolymph-like 3 (HL3) saline containing 2.25 mM H2O2. […] HL3 saline containing 1.5 mM Ca^2+ and 20 mM Mg^2+ was used as the recording saline throughout this study. HL3 has been utilized by other research groups to record EJPs.^20 Intracellular recordings of resting membrane potential were taken from Drosophila larval muscle 6.
All test compounds and H2O2 were applied to the Drosophila larval NMJ preparation as previously described by Caplan et al. (supra). However, the compounds utilized in the Caplan et al. work were dissolved in dimethyl sulfoxide (DMSO), whereas the compounds utilized in the present study are water-soluble at the concentrations used and thus were dissolved in ddH2O.
The statistics utilized in the vertical bar charts and line graphs were performed as previously described with the exception of the error bars being presented as mean±SEM instead of mean±SD. The EC50, or half maximal effective concentration, of each test compound was determined by plotting the logio(compound dose) against the corresponding average percentage of the maximal effectiveness, as previously described (Caplan et al. J. Neurophys. 109, 649-658).

[3] = system: Drosophila larval muscle 6 resting membrane potential; test: intracellular recording of resting membrane potential (RMP) during acute oxidative stress; details: 1 nM with 2.25 mM H2O2 versus H2O2 alone
Protocol: FIGS. 8A and 8B are a pair of graphs showing that during acute oxidative stress, Drosophila larval muscle resting membrane potential (RMP) and EJP amplitude decline. […] 8B) EJP amplitude was recorded in the same larval preparations (n=5 per group). […] Data is presented as mean±SEM.
To ensure that the results obtained using compound 1 and resveratrol were not due to changes in the EJP, additional control experiments were performed, as previously described (Caplan et al. J. Neurophys. 109, 649-658). […] It was also observed that resting membrane potential (RMP) and EJP amplitude decline in larvae treated with H2O2 alone and H2O2 with 1 nM compound 1 (see FIGS. 8A. 8B).
as §1, with “HL3 has been utilized by other research groups to record EJPs.^20 Intracellular recordings of resting membrane potential were taken from Drosophila larval muscle 6.” left out

SMILES: COc1cc(OC)cc(C2CC3C(OC(C)=O)C(C)=C(C)C2(C(=O)O)C3OC(C)=O)c1 (racemic) [compound 1, 7-(3,5-dimethoxyphenyl)-4,8-diacetoxy-2,3-dimethylbicyclo[3.2.1]oct-2-ene-1-carboxylic acid]
- acute effect on the shape or amplitude of the EJP [1]: do not have a significant acute effect; also recorded: do not acutely affect
- time until synaptic failure restored ([2]; 0.5 nM, in the presence of hydrogen peroxide): 80%
- normal synaptic function maintained ([2]; 25 nM, H2O2 2.25 mM, wild-type fruit fly larvae): 100%
- time to synaptic failure compared to control and resveratrol-treated preparations ([2]; 0.5-5 nM dosage range, 2.25 mM H2O2, P<0.001): significantly increased time to synaptic failure
- EC50 [2]: ~0.21 nM
- neuroprotection in screening of initial compounds ([2]; H2O2 2.25 mM, wild-type fruit fly larvae): potent neuroprotectants
- neuroprotective effect compared to resveratrol across dosages ([2]; almost all dosages tested (0.5 nM to 25 nM)): stronger neuroprotective effects
- protection of synaptic transmission from acute oxidative stress ([2]; at a subnanomolar level): protect synaptic transmission from acute oxidative stress
- dose dependence of neuroprotective effect ([2]; dose-response, 2.25 mM H2O2): dose-dependent manner
- neuroprotective effect at lowest dose ([2]; doses as low as 500 pM, H2O2 exposure): strong neuroprotective effects
- ion channel stabilization ([2]; general statement ('appear to have'), no separate test described): ion channel stabilization effects
- toxicity ([2]; general statement, no separate test described): non-toxic
- time until synaptic failure compared to control larvae treated with 2.25 mM H2O2 only ([2]; low doses (0.5 nM and 1 nM)): significantly increased the amount of time until synaptic failure
- neuroprotective effect compared to resveratrol ([2]; similar dosage of resveratrol, P<0.001): stronger neuroprotective effects
- decline of resting membrane potential (RMP) [3]: significantly slowed the decline of RMP

SMILES: COc1cc(OC)cc(C2CC3C(O)C(C)=C(C)C2(C(=O)O)C3O)c1 (racemic) [compound 2, 7-(3,5-dimethoxyphenyl)-4,8-dihydroxy-2,3-dimethylbicyclo[3.2.1]oct-2-ene-1-carboxylic acid]
- EC50 [2]: 2.99 nM
- time to synaptic failure during H2O2 exposure compared to control preparations ([2]; higher doses, P<0.001): significantly increased time to synaptic failure
- time to failure during H2O2 exposure ([2]; low doses (0.1 nM and 0.5 nM)): did not prolong time to failure
- time to synaptic failure compared to control ([2]; only at the 5.0 nM dosage, 2.25 mM H2O2, P<0.001): similarly increased time to synaptic failure
- EC50 relative to compound 1 ([2]; ratio of EC50 values): over ten-fold higher

SMILES: Oc1ccc(C=Cc2cc(O)cc(O)c2)cc1 [resveratrol, reference compound]
- acute effect on the shape or amplitude of the EJP [1]: do not have a significant acute effect; also recorded: do not acutely affect
- time to synaptic failure ([2]; 25 nM with hydrogen peroxide 2.25 mM (H2O2 alone approx. 40 min, no H2O2 approx. 150 min)): approximately 150 min
- neuroprotectant activity from the dose curve ([2]; at the chosen dosages, unusual dose curve, EC50 not reliably determinable): does not act as a neuroprotectant
